System: 521955-158-R2-J5-PDC complex spheroid viability
Test: Anticancer human tumor 521955-158-R2-J5-PDC patient-derived pancreatic carcinoma cell line growth inhibition
Conditions: for IC50: curve of first compound; for viability, T/C: stronger effect = lower value; active = viability on the fitted dose curve at most 10% of control; inactive = the rest
In short: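 Multicellular complex spheroids of tumor cells with human endothelial cells (HUVEC) and mesenchymal stem cells; the LSD1 inhibitor iadademstat was combined with standard-of-care or investigational agents. Top concentration at or near clinical Cmax, half-log dilutions; final DMSO ≤0.25%.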

[1] = second compound 0.1 µM, first compound 0.00949 µM
[2] = second compound 0.1 µM, first compound 0.03 µM
[3] = second compound 0.1 µM, first compound 0.0949 µM
[4] = second compound 0.1 µM, first compound 0.3 µM
[5] = second compound 0.1 µM, first compound 0.949 µM
[6] = second compound 0.1 µM, first compound 3 µM
[7] = second compound 0.316 µM, first compound 0.00949 µM
[8] = second compound 0.316 µM, first compound 0.03 µM
[9] = second compound 0.316 µM, first compound 0.0949 µM
[10] = second compound 0.316 µM, first compound 0.3 µM
[11] = second compound 0.316 µM, first compound 0.949 µM
[12] = second compound 0.316 µM, first compound 3 µM
[13] = second compound 1 µM, first compound 0.00949 µM
[14] = second compound 1 µM, first compound 0.03 µM
[15] = second compound 1 µM, first compound 0.0949 µM
[16] = second compound 1 µM, first compound 0.3 µM
[17] = second compound 1 µM, first compound 0.949 µM
[18] = second compound 1 µM, first compound 3 µM
[19] = second compound 3.16 µM, first compound 0.00949 µM
[20] = second compound 3.16 µM, first compound 0.03 µM
[21] = second compound 3.16 µM, first compound 0.0949 µM
[22] = second compound 3.16 µM, first compound 0.3 µM
[23] = second compound 3.16 µM, first compound 0.949 µM
[24] = second compound 3.16 µM, first compound 3 µM
[25] = second compound 10 µM, first compound 0.00949 µM
[26] = second compound 10 µM, first compound 0.03 µM
[27] = second compound 10 µM, first compound 0.0949 µM
[28] = second compound 10 µM, first compound 0.3 µM
[29] = second compound 10 µM, first compound 0.949 µM
[30] = second compound 10 µM, first compound 3 µM
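Note: spheroids exposed to agents for seven days.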
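Throughout, for viability, T/C: percent of DMSO vehicle control luminescence viability.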

NS(=O)(=O)OCC1CC(n2ccc3c(NC4CCc5ccccc54)ncnc32)CC1O (stereo not given) + NC1CC1c1ccc(-c2cccc(O)c2)cc1
52.8 nM: IC50 (second compound 1 µM)
40.8 nM: IC50 (second compound 10 µM)
62.9 nM: IC50 (second compound 0.316 µM)
66.1 nM: IC50 (second compound 0.1 µM)
54.3 nM: IC50 (second compound 3.16 µM)
inactive: viability, T/C [1] 96.4% | viability, T/C [2] 72.8% | viability, T/C [3] 38.5% | viability, T/C [4] 22.4% | viability, T/C [5] 16.1% | viability, T/C [6] 11% | viability, T/C [7] 117% | viability, T/C [8] 71.1% | viability, T/C [9] 38.3% | viability, T/C [10] 21.7% | viability, T/C [11] 17.4% | viability, T/C [12] 12.3% | viability, T/C [13] 111% | viability, T/C [14] 62.5% | viability, T/C [15] 37.6% | viability, T/C [16] 21.2% | viability, T/C [17] 16.7% | viability, T/C [18] 11.5% | viability, T/C [19] 120% | viability, T/C [20] 63.6% | viability, T/C [21] 38.1% | viability, T/C [22] 21.3% | viability, T/C [23] 17.7% | viability, T/C [24] 14.1% | viability, T/C [25] 83.7% | viability, T/C [26] 54.5% | viability, T/C [27] 37.5% | viability, T/C [28] 23.9% | viability, T/C [29] 21% | viability, T/C [30] 16%

Nc1ccccc1NC(=O)c1ccc(CNC(=O)OCc2cccnc2)cc1 + NC1CC1c1ccc(-c2cccc(O)c2)cc1
403 nM: IC50 (second compound 10 µM)
393 nM: IC50 (second compound 0.316 µM)
inactive: viability, T/C [1] 89.2% | viability, T/C [2] 101% | viability, T/C [3] 83.6% | viability, T/C [4] 62.8% | viability, T/C [5] 22.8% | viability, T/C [7] 83.7% | viability, T/C [8] 88.8% | viability, T/C [9] 77.9% | viability, T/C [10] 59.9% | viability, T/C [11] 19.9% | viability, T/C [13] 90.4% | viability, T/C [14] 88.5% | viability, T/C [15] 77.1% | viability, T/C [16] 67.8% | viability, T/C [17] 19.9% | viability, T/C [19] 84.2% | viability, T/C [20] 89.1% | viability, T/C [21] 82.9% | viability, T/C [22] 70% | viability, T/C [23] 14.2% | viability, T/C [25] 90.3% | viability, T/C [26] 85.1% | viability, T/C [27] 83.7% | viability, T/C [28] 65.3%
active: viability, T/C [6] 0.44% | viability, T/C [12] 0.28% | viability, T/C [18] 1.47% | viability, T/C [24] 0.23% | viability, T/C [29] 5.98% | viability, T/C [30] 0.28%
429 nM: IC50 (second compound 0.1 µM)
446 nM: IC50 (second compound 1 µM)
452 nM: IC50 (second compound 3.16 µM)

O=C(C=Cc1cccc(S(=O)(=O)Nc2ccccc2)c1)NO + NC1CC1c1ccc(-c2cccc(O)c2)cc1
356 nM: IC50 (second compound 10 µM)
inactive: viability, T/C [1] 103% | viability, T/C [2] 113% | viability, T/C [3] 82.4% | viability, T/C [4] 62.8% | viability, T/C [5] 30.1% | viability, T/C [7] 94.1% | viability, T/C [8] 102% | viability, T/C [9] 91.1% | viability, T/C [10] 61.8% | viability, T/C [11] 23.8% | viability, T/C [13] 97.7% | viability, T/C [14] 107% | viability, T/C [15] 87.8% | viability, T/C [16] 65.8% | viability, T/C [17] 22.1% | viability, T/C [19] 112% | viability, T/C [20] 101% | viability, T/C [21] 89.1% | viability, T/C [22] 55.5% | viability, T/C [23] 17.1% | viability, T/C [25] 112% | viability, T/C [26] 112% | viability, T/C [27] 83.7% | viability, T/C [28] 61% | viability, T/C [29] 14.7%
active: viability, T/C [6] 0.42% | viability, T/C [12] 0.53% | viability, T/C [18] 1.1% | viability, T/C [24] 0.23% | viability, T/C [30] 0.31%
459 nM: IC50 (second compound 0.1 µM)
446 nM: IC50 (second compound 1 µM)
347 nM: IC50 (second compound 3.16 µM)
438 nM: IC50 (second compound 0.316 µM)

— PubChem BioAssay AID1918937 (Molecular Pharmacology Branch, DTP, NCI, 2023)
